Patent US12344610B2, “APOL1 inhibitors and methods of use” (Maze Therapeutics, Inc., priority 2022, dated 2025)

What was measured:
[1] = system: Trypanosoma brucei Lister 427 VSG221 with APOL1 G2 recombinant protein; assay: APOL1 G2 trypanosome cell rescue assay (Example B5); type: cell-based; conditions: Trypanosoma brucei, 20 h, read-out: APOL1 G2 Trypanosome Rescue EC50, Trypanosoma brucei Lister 427 VSG221 with APOL1 G2 recombinant protein, 20 hours, CellTiter-Glo; geometric mean of at least 2 assay runs; † = single assay run
Outline: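 Recombinant APOL1 protein, dispensed from a 2 μg/mL stock, and 250 T. brucei per well were co-incubated with test compound (0.4% DMSO) for 20 h. Viability: CellTiter-Glo luminescence.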

[2] = system: HEK293 cells overexpressing APOL1 G2; assay: APOL1 G2 HEK293 cell rescue assay (reversal of cell death caused by overexpression of APOL1); type: cell-based; conditions: Homo sapiens, HEK293, HEK293 overexpressing APOL1 G2; geometric mean of at least 2 assay runs; † = single assay run
Outline: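 Each compound tested in duplicate wells on one plate per run, with values usually the geometric mean across at least two runs on different days, occasionally from one run only. Read-out: concentration giving half-maximal rescue of APOL1 G2 overexpression-induced death of HEK293 cells.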

CC(c1ncc(OCCN2CCC3(CC2)C(=O)Nc2ccc(Cl)cc23)cn1)S(C)(=O)=O (stereo not drawn) [Compound 1, 5-Chloro-1′-(2-{[2-(1-methanesulfonylethyl)pyrimidin-5-yl]oxy}ethyl)-1,2-dihydrospiro[indole-3,4′-piperidin]-2-one]
EC50 [1]: 0.0896 µM | EC50 [2]: 0.12 µM

CS(=O)(=O)C1(c2ncc(OCCN3CCC4(CC3)C(=O)Nc3ccc(Cl)cc34)cn2)CC1 [Compound 4, 5-chloro-1′-(2-{[2-(1-methanesulfonylcyclopropyl)pyrimidin-5-yl]oxy}ethyl)-1,2-dihydrospiro[indole-3,4′-piperidin]-2-one]
EC50 [1]: 0.0519 µM | EC50 [2]: 0.0719 µM

Cc1nc(-c2ccc(OCCN3CCC4(CC3)C(=O)N(C)c3ccccc34)cc2)no1 [Compound 35, 1-methyl-1′-{2-[4-(5-methyl-1,2,4-oxadiazol-3-yl)phenoxy]ethyl}-1,2-dihydrospiro[indole-3,4′-piperidin]-2-one]
EC50 [1]: > 4 µM | EC50 [2]: 0.574 µM

CC(=O)N1CCCc2cc(OCCN3CCC4(CC3)C(=O)N(C)c3ccccc34)ccc21 [Compound 36, 1′-{2-[(1-acetyl-1,2,3,4-tetrahydroquinolin-6-yl)oxy]ethyl}-1-methyl-1,2-dihydrospiro[indole-3,4′-piperidin]-2-one]
EC50 [1]: 1.71 µM | EC50 [2]: 0.919 µM

CS(=O)(=O)c1c(F)cc(OCCN2CCC3(CC2)C(=O)Nc2ccccc23)cc1F [Compound 42, 1′-[2-(3,5-difluoro-4-methanesulfonylphenoxy)ethyl]-1,2-dihydrospiro[indole-3,4′-piperidin]-2-one]
EC50 [1]: 0.406 µM | EC50 [2]: 0.343 µM

O=C1Nc2ccc(Cl)cc2C12CCN(CCOc1ccc(S(=O)(=O)C3CC3)cc1)CC2 [Compound 43, 5-chloro-1′-{2-[4-(cyclopropanesulfonyl)phenoxy]ethyl}-1,2-dihydrospiro[indole-3,4′-piperidin]-2-one]
EC50 [1]: 0.0194 µM | EC50 [2]: 0.0331 µM

O=C1Nc2ccccc2C12CCN(CCOc1ccc(S(=O)(=O)C(F)F)cc1)CC2 [Compound 44, 1′-[2-(4-difluoromethanesulfonylphenoxy)ethyl]-1,2-dihydrospiro[indole-3,4′-piperidin]-2-one]
EC50 [1]: 0.119 µM | EC50 [2]: 0.116 µM

NC(=O)c1ccc(OCCN2CCC3(CC2)C(=O)Nc2ccc(Cl)cc23)cc1 [Compound 45, 4-(2-{5-chloro-2-oxo-1,2-dihydrospiro[indole-3,4′-piperidin]-1′-yl}ethoxy)benzamide]
EC50 [1]: 0.162 µM | EC50 [2]: 0.122 µM

NC(=O)c1ccc(OCCN2CCC3(CC2)C(=O)Nc2ccc(Cl)cc23)cc1F [Compound 46, 4-(2-{5-chloro-2-oxo-1,2-dihydrospiro[indole-3,4′-piperidin]-1′-yl}ethoxy)-2-fluorobenzamide]
EC50 [1]: 0.0505 µM | EC50 [2]: 0.0728 µM

Cc1cc(OCCN2CCC3(CC2)C(=O)Nc2ccc(Cl)cc23)ccc1C(N)=O [Compound 49, 4-(2-{5-chloro-2-oxo-1,2-dihydrospiro[indole-3,4′-piperidin]-1′-yl}ethoxy)-2-methylbenzamide]
EC50 [1]: 0.109 µM | EC50 [2]: 0.0664 µM

CS(=O)(=O)c1ccc(OCCN2CCC3(CC2)C(=O)Nc2ccc(Cl)cc23)cc1C#N [Compound 50, 5-(2-{5-chloro-2-oxo-1,2-dihydrospiro[indole-3,4′-piperidin]-1′-yl}ethoxy)-2-methanesulfonylbenzonitrile]
EC50 [1]: 0.0102 µM | EC50 [2]: 0.0249 µM

CS(=O)(=O)N1CCCc2cc(OCCN3CCC4(CC3)C(=O)Nc3ccc(Cl)cc34)ccc21 [Compound 53, 5-chloro-1′-{2-[(1-methanesulfonyl-1,2,3,4-tetrahydroquinolin-6-yl)oxy]ethyl}-1,2-dihydrospiro[indole-3,4′-piperidin]-2-one]
EC50 [1]: 0.0478 µM | EC50 [2]: 0.0529 µM

CC(=O)N1CCCc2cc(OCCN3CCC4(CC3)C(=O)Nc3ccc(Cl)cc34)ccc21 [Compound 56, 1′-{2-[(1-acetyl-1,2,3,4-tetrahydroquinolin-6-yl)oxy]ethyl}-5-chloro-1,2-dihydrospiro[indole-3,4′-piperidin]-2-one]
EC50 [1]: 0.119 µM | EC50 [2]: 0.105 µM

CC(=O)N1Cc2ccc(OCCN3CCC4(CC3)C(=O)Nc3ccc(Cl)cc34)cc2C1 [Compound 57, 1′-{2-[(2-acetyl-2,3-dihydro-1H-isoindol-5-yl)oxy]ethyl}-5-chloro-1,2-dihydrospiro[indole-3,4′-piperidin]-2-one]
EC50 [1]: 0.183 µM | EC50 [2]: 0.19 µM

CNC(=O)N1CCCc2cc(OCCN3CCC4(CC3)C(=O)Nc3ccc(Cl)cc34)ccc21 [Compound 60, 6-(2-{5-chloro-2-oxo-1,2-dihydrospiro[indole-3,4′-piperidin]-1′-yl}ethoxy)-N-methyl-1,2,3,4-tetrahydroquinoline-1-carboxamide]
EC50 [1]: 0.066 µM | EC50 [2]: 0.0627 µM

O=C1Nc2ccc(Cl)cc2C12CCN(CCOc1ccc3nccnc3c1)CC2 [Compound 62, 5-chloro-1′-[2-(quinoxalin-6-yloxy)ethyl]-1,2-dihydrospiro[indole-3,4′-piperidin]-2-one]
EC50 [1]: 0.12 µM | EC50 [2]: 0.165 µM

CS(=O)(=O)c1ccc(OCCN2CCC3(CC2)C(=O)Nc2ccc(Cl)cc23)cc1F [Compound 63, 5-chloro-1′-[2-(3-fluoro-4-methanesulfonylphenoxy)ethyl]-1,2-dihydrospiro[indole-3,4′-piperidin]-2-one]
EC50 [1]: 0.0409 µM | EC50 [2]: 0.0511 µM

CS(=O)(=O)c1ccc(OCCN2CCC3(CC2)C(=O)Nc2ccc(Cl)cc23)cn1 [Compound 64, 5-chloro-1′-{2-[(6-methanesulfonylpyridin-3-yl)oxy]ethyl}-1,2-dihydrospiro[indole-3,4′-piperidin]-2-one]
EC50 [1]: 0.167 µM | EC50 [2]: 0.163 µM

CN1C(=O)Cc2cc(OCCN3CCC4(CC3)C(=O)Nc3ccc(Cl)cc34)ccc21 [Compound 65, 5-chloro-1′-{2-[(1-methyl-2-oxo-2,3-dihydro-1H-indol-5-yl)oxy]ethyl}-1,2-dihydrospiro[indole-3,4′-piperidin]-2-one]
EC50 [1]: 0.0968 µM | EC50 [2]: 0.0875 µM

Cc1ccc2c(c1)C1(CCN(CCOc3ccc(S(C)(=O)=O)cc3)CC1)C(=O)N2 [Compound 66, 1′-[2-(4-methanesulfonylphenoxy)ethyl]-5-methyl-1,2-dihydrospiro[indole-3,4′-piperidin]-2-one]
EC50 [1]: 0.0976 µM | EC50 [2]: 0.108 µM

Cn1ncc2cc(OCCN3CCC4(CC3)C(=O)Nc3ccc(Cl)cc34)ccc21 [Compound 68, 5-chloro-1′-{2-[(1-methyl-1H-indazol-5-yl)oxy]ethyl}-1,2-dihydrospiro[indole-3,4′-piperidin]-2-one]
EC50 [1]: 0.115 µM | EC50 [2]: 0.148 µM

CS(=O)(=O)c1ccc(OCCN2CCC3(CC2)C(=O)Nc2ccc(Cl)cc23)cc1 [Compound 69, 5-chloro-1′-[2-(4-methanesulfonylphenoxy)ethyl]-1,2-dihydrospiro[indole-3,4′-piperidin]-2-one]
EC50 [1]: 0.0465 µM | EC50 [2]: 0.0826 µM

Cn1ncc2cc(OCCN3CCC4(CC3)C(=O)Nc3ccccc34)ccc21 [Compound 70, 1′-{2-[(1-methyl-1H-indazol-5-yl)oxy]ethyl}-1,2-dihydrospiro[indole-3,4′-piperidin]-2-one]
EC50 [1]: 0.918 µM | EC50 [2]: 1.05 µM

CS(=O)(=O)c1ccc(OCCN2CCC3(CC2)C(=O)Nc2ccc(C#N)cc23)cc1 [Compound 71, 1′-[2-(4-methanesulfonylphenoxy)ethyl]-2-oxo-1,2-dihydrospiro[indole-3,4′-piperidine]-5-carbonitrile]
EC50 [1]: 0.205 µM | EC50 [2]: 0.345 µM

CS(=O)(=O)c1ccc(OCCN2CCC3(CC2)C(=O)Nc2ccc(Br)cc23)cc1 [Compound 72, 5-bromo-1′-[2-(4-methanesulfonylphenoxy)ethyl]-1,2-dihydrospiro[indole-3,4′-piperidin]-2-one]
EC50 [1]: 0.0457 µM | EC50 [2]: 0.0359 µM

CN(c1ccc(OCCN2CCC3(CC2)C(=O)Nc2ccc(C#N)cc23)cc1)S(C)(=O)=O [Compound 75, N-[4-(2-{5-cyano-2-oxo-1,2-dihydrospiro[indole-3,4′-piperidin]-1′-yl}ethoxy)phenyl]-N-methylmethanesulfonamide]
EC50 [1]: 0.146 µM | EC50 [2]: 0.114 µM

CN(c1ccc(OCCN2CCC3(CC2)C(=O)Nc2ccc(Cl)cc23)cc1)S(C)(=O)=O [Compound 76, N-[4-(2-{5-chloro-2-oxo-1,2-dihydrospiro[indole-3,4′-piperidin]-1′-yl}ethoxy)phenyl]-N-methylmethanesulfonamide]
EC50 [1]: 0.0355 µM | EC50 [2]: 0.0477 µM

CS(C)(=O)=Nc1ccc(OCCN2CCC3(CC2)C(=O)Nc2ccc(C#N)cc23)cc1 [Compound 77, 1′-[2-(4-{[dimethyl(oxo)-λ^6-sulfanylidene]amino}phenoxy)ethyl]-2-oxo-1,2-dihydrospiro[indole-3,4′-piperidine]-5-carbonitrile]
EC50 [1]: 1.45 µM | EC50 [2]: 2.25 µM

CN1C(=O)CCc2cc(OCCN3CCC4(CC3)C(=O)Nc3ccc(Cl)cc34)cnc21 [Compound 78, 5-chloro-1′-{2-[(8-methyl-7-oxo-5,6,7,8-tetrahydro-1,8-naphthyridin-3-yl)oxy]ethyl}-1,2-dihydrospiro[indole-3,4′-piperidin]-2-one]
EC50 [1]: 0.0326 µM | EC50 [2]: 0.041 µM

CN1C(=O)CCc2cc(OCCN3CCC4(CC3)C(=O)Nc3ccc(C#N)cc34)cnc21 [Compound 79, 1′-{2-[(8-methyl-7-oxo-5,6,7,8-tetrahydro-1,8-naphthyridin-3-yl)oxy]ethyl}-2-oxo-1,2-dihydrospiro[indole-3,4′-piperidine]-5-carbonitrile]
EC50 [1]: 0.293 µM | EC50 [2]: 0.207 µM
